pIC50: −log10 of the molar value. Where two headings read alike, the source gives them in different places.
Tests used:
[1] = test system: MCF-7 secondary mammospheres; assay: cells; type: cell-based; conditions: Homo sapiens, MCF7, 120 h
Experimental: Adherent cells were gently trypsinized, (0.05% trypsin/EDTA) washed twice in PBS and filtered through a […] cell sieve to obtain a single cell suspensions. Cells were diluted to a concentration of 10,000 cell/ml in serum-free phenol-red free MEBM (MEGM Bulletkit, Lonza) supplemented with 5 μg/ml bovine insulin, 20 ng/ml recombinant epidermal growth factor, 20 ng/ml basic fibroblast growth factor (Gibco), 1×B27 supplement, 0.5 μg/ml hydrocortisone (MEGM Bulletkit, Lonza). For MDA-MB-231 mammosphere cultures serum-free phenol red-free CnT-27 medium with growth additives (CellnTEC Advanced cell systems, Bern, Switzerland) was used as previously described. 0.1 ml was seeded per well of a Ultralow attachment 96 well plates. The following day the indicated doses of GR-24 (ppm) or vehicle alone (0.6% acetone f/c) were added. Media was replenished every 3-4 days. Self-renewal capacity of the mammospheres was determined by re-plating and producing further generations of mammospheres. Secondary mammospheres were cultivated by dissociation (trypsinization with gently vortexing) of 10-14 day old primary mammospheres. Single cell suspensions were obtained as described above.
Mammosphere viability was assessed by XTT assay (ATCC). 5 days after addition of the indicated concentrations of GR-24, cell viability was determined. […] To further investigate GR-24 induced inhibition of mammosphere formation, the expression of breast stem cells markers were examined.

[2] = test system: MDA-MB-231; assay: Crystal violet monolayer growth assay; type: cell-based, human; conditions: for pIC50: after 7 days, read-out: IC50 of long-term proliferation
Experimental: (§1) Cells were seeded at 1500 (MDA-MB-231, MDA-MB-436 and BJ fibroblasts) or 4000 cells per well of 96 well plates. […] At the indicated time points, individual plates were fixed and stained with crystal violet-methanol solution (50 μl per well) for 15 minutes, washed several times with distilled water and plates were air dried overnight. Sodium citrate solution (0.1M) was used to solubilize bound crystal violet and optical densities were measured at 560 nm (Glomax®-Multi Detection plate reader, Promega).
(§2) Cells (MDA-MB-231, MDA-MB-436 and BJ fibroblasts) were seeded at 1500 or 4000 cells per well of 96 well plates. […] At the indicated time points, individual plates were fixed and stained with crystal violet solution (0.5% crystal violet and 25% methanol) for 15 min, washed several times in distilled water and air dried overnight. Sodium citrate solution (0.1M) was used to solubilize bound crystal violet and optimal densities were measured at 560 nm (Glomax®—Multi Detection plate reader, Promega).
(§3) The effect of GR-24 (FIG. 3) on long-term cancer cell line growth was assessed by crystal violet assay. MCF-7 (estrogen receptor positive (ER+), tumorigenic, nonmetastatic), (A) MDA-MB-231, MDA-MB-436 (ER negative (−), metastatic) and BJ fibroblasts (normal, non-neoplastic line) were treated with GR-24 at a dose range of 0.5 to 10 ppm (1.65-33 μM). Growth was monitored for up to 10 days. At the indicated time points, plates were stained with crystal violet. Data are reported as the Percent Absorbance (560 nm) of vehicle control. Average±standard deviations (SD). Student's t-test (2-tailed, paired) was used to evaluate GR-24 treated groups with vehicle (control) groups at final time point and regarded as being significant if p<0.05 (*), very significant if p<0.01 (**), extremely significant if p<0.001 (***). (B) Is a graph showing the light absorbance reading (560 nm) after 7 days exposure to the indicated doses of GR-24. Data expressed as a percentage of vehicle controls. Average of triplicate samples+SD. Horizontal line (---) marks 50% reduction in Absorbance (560 nm) relative to vehicle controls.

[3] = test system: BJ fibroblasts; assay: Crystal violet monolayer growth assay; type: cell-based, human; conditions: up to 10 ppm, up to 10 days
Experimental: as §1, §2, §3

[4] = test system: MCF-7; assay: Crystal violet monolayer growth assay; type: cell-based, human
Experimental: as §1, §2, §3

[5] = test system: MDA-MB-436; assay: Crystal violet monolayer growth assay; type: cell-based, human; conditions: for pIC50: after 7 days, read-out: IC50 of long-term proliferation
Experimental: as §1, §2, §3

[6] = read-out: Mammosphere viability

CC1=C[C@H](O/C=C2/C(=O)O[C@@H]3c4ccccc4C[C@H]23)OC1=O (relative stereo) [GR-24, (3aR*,8bS*,E)-3-(((R*)-4-methyl-5-oxo-2,5-dihydrofuran-2-yloxy)methylene)-3,3a,4,8b-tetrahydro-2H-indeno[1,2-b]furan-2-one] gave a viability at 2.5 ppm [1, 6] of 68.6%, a viability at 5 ppm [1, 6] of 16.4% and a cytotoxicity at 5 ppm ([1]; read-out: Reduction of viability) of roughly 80%. The pIC50 ([2]; Homo sapiens, MDA-MB-231, 168 h) was 4.66, the pIC50 [2] was 4.73 and the “Concentrations resulting in a significant reduction in growth compared to vehicle” value ([2]; up to 10 days) was 2.5-5 ppm. The “Growth compared to vehicle” value [3] was “no significant reduction in growth”, the pIC50 ([4]; Homo sapiens, MCF7, 168 h, after 7 days, read-out: IC50 of long-term proliferation) was 4.73 and the “IC50 of long-term proliferation” value ([4]; after 7 days) was 5.7 ppm. The “Concentrations resulting in a significant reduction in growth compared to vehicle” value ([4]; up to 10 days) was 2.5-5 ppm, the pIC50 ([5]; Homo sapiens, MDA-MB-436, 168 h) was 4.73 and the pIC50 [5] was 4.76. The “Concentrations resulting in a significant reduction in growth compared to vehicle” value ([5]; up to 10 days) was 2.5-5 ppm.

From patent US10208007B2, “Use of strigolactones and strigolactone analogs for treating proliferative conditions” (The State of Israel, Ministry of Agriculture & Rural …, priority 2011, dated 2019)
